Experimental data as given in patent US20060110451A1, “Formulations of [1,4]diazepino[6,7,1-IJ]quinoline derivatives” (priority 2004, published 2006).
Like-named read-outs stand apart in the source and are kept apart here.

Test: Ascending multiple dose pharmacokinetics of enteric coated capsules in healthy subjects
Assay type: in vivo, human
Settings: for Tmax / half-life / AUC(0-t) / Cmax / AUC(0-inf): human, plasma
Procedure: Ascending multiple doses of 25, 50, 75, 100, 150, and 250 mg Compound A.HCl were administered as twice-daily regimen (q12h) for 14 days in cohorts of 8 healthy subjects (6 active and 2 placebo). Blood samples for Compound A.HCl analysis were obtained on days 1 and 14 within 2 hours of test article administration and at various time points from 0.5 to 48 hours after test article administration. Doses were administered orally after an overnight fast of at least 10 hours on these 2 days. Trough PK samples were collected on days 7, 10, and 12 to assess whether steady-state had been reached.
A total of 48 subjects contributed pharmacokinetic data for this analysis. […] FIGS. 4A and 4B show the relationship between Cmax vs. dose and AUC vs. dose, respectively.

Cl.c1cc2c3c(c1)[C@H]1CCC[C@H]1CN3CCNC2 [Compound A.HCl, (9aR,12aS)-4,5,6,7,9,9a,10,11,12,12a-decahydrocyclopenta[c][1,4]diazepino[6,7,1-ij]quinoline hydrochloride]
steady-state Cl/F lower in comparison to the lower dose groups (250 mg q12h dose): 54-60% | time of minor secondary peak (day 14 (steady state), most subjects, all dose groups): 24 to 28 h | dose-proportionality of single dose and steady-state AUC and Cmax (dose range 25 to 150 mg q12h): approximately linear dose-proportionality | Tmax (oral, healthy subjects, single and multiple dose administration, enteric-coated formulation, 25-250 mg, read-out: mean Tmax): 4 to 6 h | half-life (oral, multiple dose, read-out: mean elimination t1/2): 6 to 8 h | half-life (oral, single dose, read-out: mean elimination t1/2): 8 to 11 h | AUC(0-t) (po, 25 mg, healthy subjects, multiple oral doses (q12 h) 25 mg, day 14, read-out: AUCss (AUC0-12) (Geom. Mean)): 8 ng·h/mL | AUC(0-t) (po, 25 mg, healthy subjects, multiple oral doses (q12 h) 25 mg, day 14, read-out: AUCss (AUC0-12) (Mean)): ~8.73 ng·h/mL | Cmax (po, 25 mg, healthy subjects, multiple oral doses (q12 h) 25 mg, day 14, read-out: Cmax (Geom. Mean)): 1.16 ng/mL | Cmax (po, 25 mg, healthy subjects, multiple oral doses (q12 h) 25 mg, day 14, read-out: Cmax (Mean)): 1.22 ng/mL | Tmax (po, 25 mg, healthy subjects, multiple oral doses (q12 h) 25 mg, day 14, read-out: Tmax (Geom. Mean)): 3.7 h | Tmax (po, 25 mg, healthy subjects, multiple oral doses (q12 h) 25 mg, day 14, read-out: Tmax (Mean)): 4 h | half-life (po, 25 mg, healthy subjects, multiple oral doses (q12 h) 25 mg, day 14, read-out: t1/2 (Geom. Mean) (converted)): 6.25 h | half-life (po, 25 mg, healthy subjects, multiple oral doses (q12 h) 25 mg, day 14, read-out: t1/2 (Mean) (converted)): 6.35 h | Cmax (po, 25 mg, healthy subjects, single oral dose 25 mg, day 1, read-out: Cmax (Geom. Mean)): 0.81 ng/mL | Cmax (po, 25 mg, healthy subjects, single oral dose 25 mg, day 1, read-out: Cmax (Mean)): 0.87 ng/mL | Tmax (po, 25 mg, healthy subjects, single oral dose 25 mg, day 1, read-out: Tmax (Geom. Mean)): 5 h | Tmax (po, 25 mg, healthy subjects, single oral dose 25 mg, day 1, read-out: Tmax (Mean)): 5.2 h | AUC(0-t) (po, 50 mg, healthy subjects, multiple oral doses (q12 h) 50 mg, day 14, read-out: AUCss (AUC0-12) (Geom. Mean)): 25.3 ng·h/mL | AUC(0-t) (po, 50 mg, healthy subjects, multiple oral doses (q12 h) 50 mg, day 14, read-out: AUCss (AUC0-12) (Mean)): ~26.5 ng·h/mL | Cmax (po, 50 mg, healthy subjects, multiple oral doses (q12 h) 50 mg, day 14, read-out: Cmax (Geom. Mean)): 3.27 ng/mL | Cmax (po, 50 mg, healthy subjects, multiple oral doses (q12 h) 50 mg, day 14, read-out: Cmax (Mean)): 3.39 ng/mL | Tmax (po, 50 mg, healthy subjects, multiple oral doses (q12 h) 50 mg, day 14, read-out: Tmax (Geom. Mean)): 5.6 h | Tmax (po, 50 mg, healthy subjects, multiple oral doses (q12 h) 50 mg, day 14, read-out: Tmax (Mean)): 5.7 h | half-life (po, 50 mg, healthy subjects, multiple oral doses (q12 h) 50 mg, day 14, read-out: t1/2 (Geom. Mean) (converted)): 7.58 h | half-life (po, 50 mg, healthy subjects, multiple oral doses (q12 h) 50 mg, day 14, read-out: t1/2 (Mean) (converted)): 7.64 h | AUC(0-inf) (po, 50 mg, healthy subjects, single oral dose 50 mg, day 1, read-out: AUC0-∞ (Geom. Mean)): 22.8 ng·h/mL | AUC(0-inf) (po, 50 mg, healthy subjects, single oral dose 50 mg, day 1, read-out: AUC0-∞ (Mean)): 23.5 ng·h/mL | Cmax (po, 50 mg, healthy subjects, single oral dose 50 mg, day 1, read-out: Cmax (Geom. Mean)): 2.29 ng/mL | Cmax (po, 50 mg, healthy subjects, single oral dose 50 mg, day 1, read-out: Cmax (Mean)): 2.35 ng/mL | Tmax (po, 50 mg, healthy subjects, single oral dose 50 mg, day 1, read-out: Tmax (Geom. Mean)): 5 h | Tmax (po, 50 mg, healthy subjects, single oral dose 50 mg, day 1, read-out: Tmax (Mean)): 5.3 h | half-life (po, 50 mg, healthy subjects, single oral dose 50 mg, day 1, read-out: t1/2 (Geom. Mean) (converted)): 9.69 h | half-life (po, 50 mg, healthy subjects, single oral dose 50 mg, day 1, read-out: t1/2 (Mean) (converted)): 10.7 h | AUC(0-t) (po, 75 mg, healthy subjects, multiple oral doses (q12 h) 75 mg, day 14, read-out: AUCss (AUC0-12) (Geom. Mean)): 24.1 ng·h/mL | AUC(0-t) (po, 75 mg, healthy subjects, multiple oral doses (q12 h) 75 mg, day 14, read-out: AUCss (AUC0-12) (Mean)): ~24.9 ng·h/mL | Cmax (po, 75 mg, healthy subjects, multiple oral doses (q12 h) 75 mg, day 14, read-out: Cmax (Geom. Mean)): 2.92 ng/mL | Cmax (po, 75 mg, healthy subjects, multiple oral doses (q12 h) 75 mg, day 14, read-out: Cmax (Mean)): 3.05 ng/mL | Tmax (po, 75 mg, healthy subjects, multiple oral doses (q12 h) 75 mg, day 14, read-out: Tmax (Geom. Mean)): 6.3 h | Tmax (po, 75 mg, healthy subjects, multiple oral doses (q12 h) 75 mg, day 14, read-out: Tmax (Mean)): 6.3 h | half-life (po, 75 mg, healthy subjects, multiple oral doses (q12 h) 75 mg, day 14, read-out: t1/2 (Geom. Mean) (converted)): 6.38 h | half-life (po, 75 mg, healthy subjects, multiple oral doses (q12 h) 75 mg, day 14, read-out: t1/2 (Mean) (converted)): 6.45 h | AUC(0-inf) (po, 75 mg, healthy subjects, single oral dose 75 mg, day 1, read-out: AUC0-∞ (Geom. Mean)): 16.8 ng·h/mL | AUC(0-inf) (po, 75 mg, healthy subjects, single oral dose 75 mg, day 1, read-out: AUC0-∞ (Mean)): 16.9 ng·h/mL | Cmax (po, 75 mg, healthy subjects, single oral dose 75 mg, day 1, read-out: Cmax (Geom. Mean)): 1.56 ng/mL | Cmax (po, 75 mg, healthy subjects, single oral dose 75 mg, day 1, read-out: Cmax (Mean)): 1.6 ng/mL | Tmax (po, 75 mg, healthy subjects, single oral dose 75 mg, day 1, read-out: Tmax (Geom. Mean)): 5.3 h | Tmax (po, 75 mg, healthy subjects, single oral dose 75 mg, day 1, read-out: Tmax (Mean)): 5.5 h | half-life (po, 75 mg, healthy subjects, single oral dose 75 mg, day 1, read-out: t1/2 (Geom. Mean) (converted)): 7.93 h | half-life (po, 75 mg, healthy subjects, single oral dose 75 mg, day 1, read-out: t1/2 (Mean) (converted)): 8.22 h
